Source: ChEMBL document CHEMBL5126660, “Sesquiterpenoids from Seriphidium transiliense and Their Melanogenic Activity” (2022)
Active and inactive are the calls of the source. No cut-off for these calls is given here.

Tests used:
B16 [1] = experiment: Induction of melanogenesis in mouse B16 cells assessed as increase in intracellular melanin content at 50 uM incubated for 49 hrs by NaOH lysis based microplate reader assay; format: functional
B16 [2] = experiment: Induction of melanogenesis in mouse B16 cells assessed as upregulation of TRP-2 mRNA expression at 50 uM by RT-PCR analysis; format: functional, cell-based
HaCaT [3] = experiment: Inhibition of JAK/STAT signaling pathway in human HaCaT cells assessed as downregulation of IFN-gamma induced JAK2 protein expression at 50 uM incubated for 48 hrs by Western blot analysis; format: cell-based
B16 [4] = experiment: Induction of melanogenesis in mouse B16 cells assessed as upregulation of MITF mRNA expression at 50 uM by RT-PCR analysis; format: functional, cell-based
B16 [5] = experiment: Induction of melanogenesis in mouse B16 cells assessed as upregulation of TRP-1 mRNA expression at 50 uM by RT-PCR analysis; format: functional, cell-based
HaCaT [6] = experiment: Inhibition of JAK/STAT signaling pathway in human HaCaT cells assessed as downregulation of IFN-gamma induced CXCL10 mRNA expression at 1 to 50 uM by RT-PCR analysis; format: cell-based; conditions: dose 1-50 µM, DDE = dose-dependent effect
B16 [7] = experiment: Induction of melanogenesis in mouse B16 cells assessed as upregulation of TRP-1 protein expression at 50 uM incubated for 48 hrs by Western blot analysis; format: functional, cell-based
HaCaT [8] = experiment: Inhibition of JAK/STAT signaling pathway in human HaCaT cells assessed as downregulation of IFN-gamma induced JAK1 protein expression at 1 to 50 uM incubated for 48 hrs by Western blot analysis; format: cell-based; conditions: dose 1-50 µM
HaCaT [9] = experiment: Inhibition of JAK/STAT signaling pathway in human HaCaT cells assessed as downregulation of IFN-gamma induced p-STAT protein expression at 10 to 50 uM incubated for 48 hrs by Western blot analysis; format: cell-based; conditions: dose 10-50 µM
B16 [10] = experiment: Induction of melanogenesis in mouse B16 cells assessed as upregulation of TRP-2 protein expression at 50 uM incubated for 48 hrs by Western blot analysis; format: functional, cell-based
B16 [11] = experiment: Induction of melanogenesis in mouse B16 cells assessed as increase in intracellular melanin content at 1 to 50 uM incubated for 49 hrs by NaOH lysis based microplate reader assay; format: functional, cell-based; conditions: dose 1-50 µM, DDE = dose-dependent effect
HaCaT [12] = experiment: Inhibition of JAK/STAT signaling pathway in human HaCaT cells assessed as downregulation of IFN-gamma induced CXCL10 protein level at 1 to 50 uM incubated for 24 hrs by ELISA; format: cell-based; conditions: dose 1-50 µM, DDE = dose-dependent effect
B16 [13] = experiment: Induction of melanogenesis in mouse B16 cells assessed as upregulation of MITF protein expression at 50 uM incubated for 48 hrs by Western blot analysis; format: functional, cell-based
B16 [14] = experiment: Induction of melanogenesis in mouse B16 cells assessed as upregulation of TYR mRNA expression at 50 uM by RT-PCR analysis; format: functional, cell-based
B16 [15] = experiment: Induction of melanogenesis in mouse B16 cells assessed as upregulation of TYR protein expression at 50 uM incubated for 48 hrs by Western blot analysis; format: functional, cell-based
B16 [16] = experiment: Induction of melanogenesis in mouse B16 cells assessed as increase in intracellular tyrosinase activity at 50 uM incubated for 48 hrs by L-DOPA oxidation method; format: functional, cell-based

SMILES: COc1c2occc2cc2ccc(=O)oc12 [METHOXSALEN]
- Activity (B16 [1]): 138%

SMILES: C=C1CC[C@H](O)[C@]2(C)CC[C@H]3[C@@H](C)C(=O)O[C@@H]3[C@@]12O
- Activity (B16 [1]): Active

SMILES: C=C1CC[C@@H](O)[C@]2(C)CC[C@@H]([C@@H](C)C(=O)OC)[C@H](O)[C@]12O
- Activity (B16 [2]): Active
- inhibition (HaCaT [3]): Active
- Activity (B16 [4]): Active
- Activity (B16 [5]): Active
- inhibition (HaCaT [6]): Dde
- Activity (B16 [7]): Active
- inhibition (HaCaT [8]): Active
- inhibition (HaCaT [9]): Active
- Activity (B16 [10]): Active
- Activity (B16 [1]): 153%
- Activity (B16 [11]): Dde
- inhibition (HaCaT [12]): Dde
- Activity (B16 [13]): Active
- Activity (B16 [14]): Active
- Activity (B16 [15]): Active
- Activity (B16 [16]): Active

SMILES: C=C1CC[C@@H](O)[C@]2(C)CC[C@@H]([C@@H](C)C(=O)OC)[C@H](O)[C@@]12O
- Activity (B16 [1]): Active

SMILES: C=C1CC[C@@H](O)[C@]2(C)C[C@H](OC(C)=O)[C@H]3[C@H](C)C(=O)O[C@@H]3[C@@]12O
- Activity (B16 [1]): Active
